{"source": "patent US20140316005A1", "about": "“COMPOSITIONS FOR IMPROVED OXIDATIVE STATUS IN COMPANION ANIMALS” (HILL'S PET NUTRITION, INC., priority 2003, published 2014)", "conditions": "for Total gain / Weekly gain / Final wt.: kittens; for Total gain / Weekly gain: 10 weeks post-weaning; for Final wt.: end of 10-week trial", "source_text": "Dietary methionine was fed to growing kittens at three levels (0.77, 1.14, and 1.50%) to determine the effect of methionine on growth performance and antioxidant activity. Kittens were fed meat based, canned diets for 10 weeks post-weaning.", "key": {"[1]": {"conditions": "Week 5, dietary methionine 0.77 wt %"}, "[2]": {"conditions": "Week 5, dietary methionine 1.14 wt %"}, "[3]": {"conditions": "Week 5, dietary methionine 1.50 wt %"}, "[4]": {"conditions": "Week 10, dietary methionine 0.77 wt %"}, "[5]": {"conditions": "Week 10, dietary methionine 1.14 wt %"}, "[6]": {"conditions": "Week 10, dietary methionine 1.50 wt %"}, "[7]": {"conditions": "week 5, 1.50 wt % dietary methionine vs 0.77 wt %"}, "[8]": {"conditions": "week 10, 1.50 wt % dietary methionine vs 0.77 wt %"}}, "note": "Read-outs that look alike come from different tables or passages of the source.", "data": [{"compound": "CSCC[C@H](N)C(=O)O", "note": "[methionine]", "values": [{"measurement": "Weekly weight gain, in words", "setting": "1.14 wt % and 1.50 wt % dietary methionine compared to 0.77 wt %", "value": "increased"}, {"measurement": "ORAC (oxygen radical absorptive capacity)", "setting": "[1]", "value": 2521.84}, {"measurement": "Taurine (whole blood)", "setting": "[1]", "value": 575.63}, {"measurement": "Vitamin E (serum)", "setting": "[1]", "value": 15.63}, {"measurement": "ORAC (oxygen radical absorptive capacity)", "setting": "[2]", "value": 2694.51}, {"measurement": "Taurine (whole blood)", "setting": "[2]", "value": 630.00}, {"measurement": "Vitamin E (serum)", "setting": "[2]", "value": 19.86}, {"measurement": "ORAC (oxygen radical absorptive capacity)", "setting": "[3]", "value": 3164.36}, {"measurement": "Taurine (whole blood)", "setting": "[3]", "value": 783.71}, {"measurement": "Vitamin E (serum)", "setting": "[3]", "value": 30.19}, {"measurement": "ORAC (oxygen radical absorptive capacity)", "setting": "[4]", "value": 2972.53}, {"measurement": "Taurine (whole blood)", "setting": "[4]", "value": 625.75}, {"measurement": "Vitamin E (serum)", "setting": "[4]", "value": 20.74}, {"measurement": "ORAC (oxygen radical absorptive capacity)", "setting": "[5]", "value": 2503.38}, {"measurement": "Taurine (whole blood)", "setting": "[5]", "value": 616.13}, {"measurement": "Vitamin E (serum)", "setting": "[5]", "value": 24.24}, {"measurement": "ORAC (oxygen radical absorptive capacity)", "setting": "[6]", "value": 3013.31}, {"measurement": "Taurine (whole blood)", "setting": "[6]", "value": 784.57}, {"measurement": "Vitamin E (serum)", "setting": "[6]", "value": 25.13}, {"measurement": "Total gain", "setting": "dietary methionine 0.77 wt %", "value": 950.00, "unit": "g"}, {"measurement": "Weekly gain", "setting": "dietary methionine 0.77 wt %", "value": 95.00, "unit": "g"}, {"measurement": "Final wt.", "setting": "dietary methionine 0.77 wt %", "value": 1518.75, "unit": "g"}, {"measurement": "Total gain", "setting": "dietary methionine 1.14 wt %", "value": 1075.00, "unit": "g"}, {"measurement": "Weekly gain", "setting": "dietary methionine 1.14 wt %", "value": 107.50, "unit": "g"}, {"measurement": "Final wt.", "setting": "dietary methionine 1.14 wt %", "value": 1612.50, "unit": "g"}, {"measurement": "Total gain", "setting": "dietary methionine 1.50 wt %", "value": 1221.43, "unit": "g"}, {"measurement": "Weekly gain", "setting": "dietary methionine 1.50 wt %", "value": 122.14, "unit": "g"}, {"measurement": "Final wt.", "setting": "dietary methionine 1.50 wt %", "value": 1792.86, "unit": "g"}, {"measurement": "Blood taurine concentrations, in words", "setting": "[7]", "value": "greater"}, {"measurement": "Oxygen radical absorptive capacity (ORAC), in words", "setting": "[7]", "value": "greater"}, {"measurement": "Vitamin E concentrations, in words", "setting": "[7]", "value": "greater"}, {"measurement": "Oxygen radical absorptive capacity, in words", "setting": "week 10", "value": "not increased"}, {"measurement": "Serum vitamin E concentrations, in words", "setting": "[8]", "value": "greater"}, {"measurement": "Whole blood taurine concentrations, in words", "setting": "[8]", "value": "greater"}]}]}
